The values that follow come from the supplement of paper PMC11368000.

Conditions in all cases: exposure time: 90 min
For test [1], the system named is 1368 (donor line of iPSC-derived cardiomyocytes). Put plainly: POD (EC05) for increase in Ca2+ transient decay-to-rise ratio (QT prolongation) vs vehicle; higher = less potent (higher point of departure). In short, it runs like this:
(§1)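 Cardiomyocytes derived from human iPSCs of 16 donors were grown 14 days in gelatin-coated 384-well plates, loaded 2 h with a fluorescent Ca2+ dye, then exposed for 90 min at 37 °C to final concentrations of 0.1, 1, 10 and 100 µM in 0.5% DMSO. A FLIPR Tetra recorded Ca2+ flux at 8 frames/s for 100 s before and after exposure. Points of departure for each donor were derived by hierarchical Bayesian Hill fitting of vehicle-normalised beat frequency, decay-to-rise ratio or peak frequency. The thresholds applied were a 5% change, or a 95% loss for peak frequency.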

The test system of test [2] is 30171 (donor line of iPSC-derived cardiomyocytes). Described as above. In a few lines: as §1
For test [3], the system named is 11235 (donor line of iPSC-derived cardiomyocytes). The description is as above. In short, it runs like this:
as §1

The test system of test [4] is 1434 (donor line of iPSC-derived cardiomyocytes). Described as above. In a few lines:
as §1

The test system of test [5] is 1565 (donor line of iPSC-derived cardiomyocytes). Described as above. In short, it runs like this:
as §1

The next test concerns 1083 (donor line of iPSC-derived cardiomyocytes). Put plainly: POD (EC05) for decrease in beat frequency (negative chronotrope) vs vehicle; higher = less potent (higher point of departure). In short, it runs like this: as §1
The test system of a further test is 1535 (donor line of iPSC-derived cardiomyocytes). Described as above. In short, it runs like this: as §1
The test system of a further test is 1518 (donor line of iPSC-derived cardiomyocytes). The test is described as above. In short, it runs like this:
as §1

The subject of a further test is 1309 (donor line of iPSC-derived cardiomyocytes). The test is described as above. In a few lines: as §1
In another test the test system is 1392 (donor line of iPSC-derived cardiomyocytes). The test is described as above. In a few lines: as §1
The next test deals with 20032 (donor line of iPSC-derived cardiomyocytes). The test is described as above. In short, it runs like this: as §1
The test system of test [6] is 1368. Described as above. In short, it runs like this:
as §1

Test [7] concerns 30171. The test is described as above. In short, it runs like this:
as §1

In a further test the test system is 20084 (donor line of iPSC-derived cardiomyocytes). The description is as above. In short, it runs like this:
as §1

Test [8] concerns 11235. Described as above. In a few lines:
as §1

The test system of a further test is 1531 (donor line of iPSC-derived cardiomyocytes). Described as above. In a few lines: as §1
The next test deals with 1516 (donor line of iPSC-derived cardiomyocytes). The description is as above. In a few lines: as §1
Test [9] concerns 1434. Described as above. In short, it runs like this:
as §1

The next test concerns 30145 (donor line of iPSC-derived cardiomyocytes). Described as above. In a few lines:
as §1

Test [10] concerns 1565. The test is described as above. In short, it runs like this:
as §1

For the molecule `N=C(N)C(F)(F)C(F)(F)C(F)(F)C(F)(F)C(F)(F)C(F)(F)C(F)(F)F` [Perfluorooctanamidine], the POD vs vehicle with 1368 [1], in the test on 30171 [2], with 11235 [3], in the test on 1434 [4], in the test with 1565 [5] and in the test on 1083 was above 100 µM in each case. For the same molecule, the POD vs vehicle in the test with 1535 is 2.86 µM; in the test on 1518, above 100 µM; in the test with 1309, above 100 µM; in the test with 1392, above 100 µM; in the test with 20032, above 100 µM; in the test with 1368 [6], above 100 µM. Moreover, the POD vs vehicle was above 100 µM with 30171 [7]; above 100 µM in the test with 20084; 0.499 µM in the test with 11235 [8]; above 100 µM with 1531; above 100 µM with 1516; above 100 µM in the test on 1434 [9]. Besides, the POD vs vehicle with 30145 and with 1565 [10] was above 100 µM in each case.

Take `OCC(F)(F)C(F)(F)C(F)(F)C(F)(F)C(F)(F)C(F)F` [Dodecafluoroheptanol]: the POD vs vehicle is above 100 µM in the test with 1368 [1]; above 100 µM with 30171 [2]; above 100 µM in the test on 11235 [3]; above 100 µM with 1434 [4]; above 100 µM in the test with 1565 [5]; 15.3 µM with 1083. Also, the POD vs vehicle came out at 18.4 µM in the test on 1535; 14.9 µM in the test on 1518; 19.4 µM with 1309; 18 µM in the test on 1392; 18.3 µM with 20032; 13.7 µM in the test with 1368 [6]. Moreover, the POD vs vehicle in the test with 30171 [7] amounted to 20.1 µM; in the test on 20084, 19.3 µM; in the test with 11235 [8], 19.2 µM; in the test with 1531, 15.7 µM; in the test with 1516, 18.9 µM; in the test on 1434 [9] it was 18.1 µM. Besides, the results for the POD vs vehicle in the test on 30145 and in the test with 1565 [10] were 19.4 µM and 20.3 µM, respectively.

Turning to `O=C(O)C=CC(F)(C(F)(F)F)C(F)(F)F` [3-(Perfluoroisopropyl)-2-propenoic_acid], the POD vs vehicle in the test on 1368 [1], in the test on 30171 [2], in the test on 11235 [3], in the test on 1434 [4], in the test with 1565 [5] and with 1083 was above 100 µM each time. In addition, the POD vs vehicle with 1535, with 1518, with 1309, with 1392, with 20032 and in the test with 1368 [6] was above 100 µM throughout. Also, the POD vs vehicle with 30171 [7], in the test with 20084, in the test with 11235 [8], in the test with 1531, in the test with 1516 and in the test with 1434 [9] was above 100 µM in each case. Further, the POD vs vehicle in the test on 30145 and in the test with 1565 [10] was above 100 µM throughout.

As for `NC(=O)C(F)(F)C(F)(F)C(F)(F)F` [Heptafluorobutyramide], the POD vs vehicle with 1368 [1], with 30171 [2], with 11235 [3], with 1434 [4], with 1565 [5] and in the test on 1083 was above 100 µM each time. Further, the POD vs vehicle in the test with 1535, in the test on 1518, in the test with 1309, with 1392, with 20032 and in the test with 1368 [6] was above 100 µM throughout. The POD vs vehicle with 30171 [7], in the test on 20084, in the test with 11235 [8], in the test on 1531, in the test on 1516 and with 1434 [9] was above 100 µM each time. The POD vs vehicle with 30145 and in the test with 1565 [10] was above 100 µM each time.

As to `OCC(F)(F)C(F)(F)C(F)(F)F` [Heptafluorobutanol], the POD vs vehicle in the test on 1368 [1], in the test with 30171 [2], with 11235 [3], in the test on 1434 [4], in the test on 1565 [5] and in the test on 1083 was above 100 µM each time. Moreover, the POD vs vehicle in the test on 1535, with 1518, in the test with 1309, with 1392, in the test with 20032 and with 1368 [6] was above 100 µM in each case. Also, the POD vs vehicle in the test on 30171 [7], with 20084, in the test with 11235 [8], with 1531, with 1516 and in the test on 1434 [9] was above 100 µM in each case. Further, the POD vs vehicle in the test with 30145 and with 1565 [10] was above 100 µM each time.

In the case of `O=C(CC(=O)C(F)(F)C(F)(F)F)C(F)(F)F` [3H,3H-Perfluoro-2,4-hexanedione], the POD vs vehicle in the test with 1368 [1], in the test with 30171 [2], in the test on 11235 [3], with 1434 [4], in the test with 1565 [5] and in the test on 1083 was above 100 µM each time. Also, the POD vs vehicle with 1535, in the test with 1518, in the test with 1309, in the test with 1392, in the test on 20032 and in the test with 1368 [6] was above 100 µM each time. The POD vs vehicle in the test on 30171 [7] was 23.5 µM; in the test with 20084, above 100 µM; in the test on 11235 [8] it was 24.9 µM; in the test on 1531 it was above 100 µM; in the test with 1516 it was 45.3 µM; in the test on 1434 [9] it was 22.6 µM. The POD vs vehicle in the test on 30145 and with 1565 [10] was above 100 µM throughout.

For the molecule `O=C(O)C(F)(F)C(F)(F)C(F)(F)C(F)(F)C(F)(F)C(F)(F)F` [Perfluoroheptanoic_acid], the POD vs vehicle in the test on 1368 [1], in the test on 30171 [2], in the test on 11235 [3], with 1434 [4], in the test with 1565 [5] and with 1083 was above 100 µM each time. Besides, the POD vs vehicle with 1535, with 1518, in the test on 1309, with 1392, with 20032 and with 1368 [6] was above 100 µM in each case. Besides, the POD vs vehicle in the test with 30171 [7] was above 100 µM; in the test on 20084, above 100 µM; in the test on 11235 [8], 20.6 µM; in the test with 1531, 78.7 µM; with 1516, 68.1 µM; with 1434 [9], above 100 µM. Moreover, the POD vs vehicle with 30145 and in the test on 1565 [10] was above 100 µM in each case.
